# Measurements published in PubChem BioAssay (NCI).
#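 Following 48 hours of exposure in 96-well plates, responses at five concentrations were used to interpolate endpoints linearly. Here, GI50 denotes the concentration required for 50% inhibition of growth. TGI is the concentration that stops growth completely.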
# Legend:
# Assay in all cases: NCI-60 cell line screen, 48 h
# [1] = tested on: 786-0 renal
# [2] = tested on: ACHN renal
# [3] = tested on: BT-549 breast
# [4] = tested on: DU-145 prostate
# [5] = tested on: HS 578T breast
# [6] = tested on: M14 melanoma
# [7] = tested on: MDA-MB-231 breast
# [8] = tested on: MDA-MB-435
# [9] = tested on: PC-3 prostate
# [10] = tested on: SR leukemia
# [11] = tested on: T-47D breast
# [12] = tested on: TK-10 renal
# [13] = tested on: A498 renal
# [14] = tested on: A549 NSCLC
# [15] = tested on: CCRF-CEM leukemia
# [16] = tested on: COLO 205 colon
# [17] = tested on: EKVX NSCLC
# [18] = tested on: HCC-2998 colon
# [19] = tested on: HCT-116 colon
# [20] = tested on: HCT-15 colon
# [21] = tested on: HL-60(TB) leukemia
# [22] = tested on: HOP-62 NSCLC
# [23] = tested on: HOP-92 NSCLC
# [24] = tested on: HT29 colon
# [25] = tested on: IGROV1 ovarian
# [26] = tested on: KM12 colon
# [27] = tested on: LOX IMVI melanoma
# [28] = tested on: MALME-3M melanoma
# [29] = tested on: MCF7 breast
# [30] = tested on: MOLT-4 leukemia
# [31] = tested on: NCI-H226 lung
# [32] = tested on: NCI-H23 lung
# [33] = tested on: NCI-H460 lung
# [34] = tested on: NCI-H522 lung
# [35] = tested on: NCI/ADR-RES ovarian
# [36] = tested on: OVCAR-3 ovarian
# [37] = tested on: OVCAR-4 ovarian
# [38] = tested on: OVCAR-5 ovarian
# [39] = tested on: OVCAR-8 ovarian
# [40] = tested on: RXF 393 renal
# [41] = tested on: SF-268 CNS
# [42] = tested on: SF-295 CNS
# [43] = tested on: SF-539 CNS
# [44] = tested on: SK-MEL-28 melanoma
# [45] = tested on: SK-MEL-5 melanoma
# [46] = tested on: SK-OV-3 ovarian
# [47] = tested on: SN12C renal
# [48] = tested on: SNB-19 CNS
# [49] = tested on: SNB-75 CNS
# [50] = tested on: SW-620 colon
# [51] = tested on: UACC-257 melanoma
# [52] = tested on: UACC-62 melanoma
# [53] = tested on: UO-31 renal
compound,measurement,setting,value
COc1ccc(O)c2c(=O)c3c(OC)cc4c(c3oc12)[C@@H]1C=CO[C@@H]1O4,GI50,[1],9.87 µM
same,TGI,[1],> 60.5 µM
same,GI50,[2],0.321 µM
same,TGI,[2],5.64 µM
same,GI50,[3],4.77 µM
same,TGI,[3],36.5 µM
same,GI50,[4],3.03 µM
same,TGI,[4],> 34.9 µM
same,GI50,[5],3.96 µM
same,TGI,[5],> 43 µM
same,GI50,[6],> 21.4 µM
same,TGI,[6],> 100 µM
same,GI50,[7],7.9 µM
same,TGI,[7],> 100 µM
same,GI50,[8],3.3 µM
same,TGI,[8],> 100 µM
same,GI50,[9],> 21.4 µM
same,TGI,[9],> 100 µM
same,GI50,[10],0.0518 µM
same,GI50,[11],0.475 µM
same,TGI,[11],13.3 µM
same,GI50,[12],4.51 µM
same,TGI,[12],34.9 µM
OCCCc1n(Cc2ccc3ccccc3c2)c2ccccc2[n+]1Cc1ccc2ccccc2c1,GI50,[1],2.09 µM
same,TGI,[1],4.74 µM
same,GI50,[13],1.38 µM
same,TGI,[13],5.18 µM
same,GI50,[14],6.97 µM
same,TGI,[14],31.4 µM
same,GI50,[2],12.5 µM
same,TGI,[2],28 µM
same,GI50,[15],1.99 µM
same,TGI,[15],5.65 µM
same,GI50,[16],0.838 µM
same,TGI,[16],2.53 µM
same,GI50,[4],3.52 µM
same,TGI,[4],14.2 µM
same,GI50,[17],3.68 µM
same,TGI,[17],19.4 µM
same,GI50,[18],1.65 µM
same,TGI,[18],3.25 µM
same,GI50,[19],1.05 µM
same,TGI,[19],2.59 µM
same,GI50,[20],11.2 µM
same,TGI,[20],24.8 µM
same,GI50,[21],0.507 µM
same,TGI,[21],2.36 µM
same,GI50,[22],2.32 µM
same,TGI,[22],11.6 µM
same,GI50,[23],0.567 µM
same,TGI,[23],3.1 µM
same,GI50,[5],2.15 µM
same,TGI,[5],7.96 µM
same,GI50,[24],1.02 µM
same,TGI,[24],4.17 µM
same,GI50,[25],0.8 µM
same,TGI,[25],2.48 µM
same,GI50,[26],1.4 µM
same,TGI,[26],3.08 µM
same,GI50,[27],1.34 µM
same,TGI,[27],2.68 µM
same,GI50,[6],1.33 µM
same,TGI,[6],3.56 µM
same,GI50,[28],1.28 µM
same,TGI,[28],2.82 µM
same,GI50,[29],1.7 µM
same,TGI,[29],3.67 µM
same,GI50,[7],1.32 µM
same,TGI,[7],2.78 µM
same,GI50,[8],1.22 µM
same,TGI,[8],2.71 µM
same,GI50,[30],1.88 µM
same,TGI,[30],5.24 µM
same,GI50,[31],2.23 µM
same,TGI,[31],10.5 µM
same,GI50,[32],1.65 µM
same,TGI,[32],8.17 µM
same,GI50,[33],2.43 µM
same,TGI,[33],9.57 µM
same,GI50,[34],1.05 µM
same,TGI,[34],3.95 µM
same,GI50,[35],27 µM
same,TGI,[35],> 100 µM
same,GI50,[36],1.07 µM
same,TGI,[36],2.81 µM
same,GI50,[37],0.67 µM
same,TGI,[37],6.73 µM
same,GI50,[38],1.98 µM
same,TGI,[38],7.17 µM
same,GI50,[39],2.67 µM
same,TGI,[39],14 µM
same,GI50,[9],1.74 µM
same,TGI,[9],11.1 µM
same,GI50,[40],1.5 µM
same,TGI,[40],3.83 µM
same,GI50,[41],1.81 µM
same,TGI,[41],4.56 µM
same,GI50,[42],2.64 µM
same,TGI,[42],11.3 µM
same,GI50,[43],2.01 µM
same,TGI,[43],6.51 µM
same,GI50,[44],1.22 µM
same,TGI,[44],2.88 µM
same,GI50,[45],1.11 µM
same,TGI,[45],2.32 µM
same,GI50,[46],2.87 µM
same,TGI,[46],13.6 µM
same,GI50,[47],1.85 µM
same,TGI,[47],10.2 µM
same,GI50,[48],1.27 µM
same,TGI,[48],2.85 µM
same,GI50,[49],1.59 µM
same,TGI,[49],4.97 µM
same,GI50,[10],1.16 µM
same,TGI,[10],3.78 µM
same,GI50,[50],1.46 µM
same,TGI,[50],3.22 µM
same,GI50,[11],0.615 µM
same,TGI,[11],6.82 µM
same,GI50,[12],1.95 µM
same,TGI,[12],4.74 µM
same,GI50,[51],1.18 µM
same,TGI,[51],3.25 µM
same,GI50,[52],0.666 µM
same,TGI,[52],2.09 µM
same,GI50,[53],10.4 µM
same,TGI,[53],25.3 µM
